Test results as given in patent US20230099293A1, “OGA INHIBITOR COMPOUNDS” (priority 2019, published 2023).

Key:
[1] = molecular target: T1, recombinant human Meningioma Expressed Antigen 5 (MGEA5), also referred to as O-GlcNAcase (OGA) (Homo sapiens, UniProt O60502); experiment: OGA biochemical assay (inhibition of FM-GlcNAc hydrolysis, fluorescence); conditions: for IC50: Enzymatic hOGA; for Emax: read-out: Enzymatic Emax (%)
T1 construct: Full length OGA enzyme was purchased at OriGene (cat #TP322411); purchased OriGene TP322411
T1 sequence (O60502 1-916): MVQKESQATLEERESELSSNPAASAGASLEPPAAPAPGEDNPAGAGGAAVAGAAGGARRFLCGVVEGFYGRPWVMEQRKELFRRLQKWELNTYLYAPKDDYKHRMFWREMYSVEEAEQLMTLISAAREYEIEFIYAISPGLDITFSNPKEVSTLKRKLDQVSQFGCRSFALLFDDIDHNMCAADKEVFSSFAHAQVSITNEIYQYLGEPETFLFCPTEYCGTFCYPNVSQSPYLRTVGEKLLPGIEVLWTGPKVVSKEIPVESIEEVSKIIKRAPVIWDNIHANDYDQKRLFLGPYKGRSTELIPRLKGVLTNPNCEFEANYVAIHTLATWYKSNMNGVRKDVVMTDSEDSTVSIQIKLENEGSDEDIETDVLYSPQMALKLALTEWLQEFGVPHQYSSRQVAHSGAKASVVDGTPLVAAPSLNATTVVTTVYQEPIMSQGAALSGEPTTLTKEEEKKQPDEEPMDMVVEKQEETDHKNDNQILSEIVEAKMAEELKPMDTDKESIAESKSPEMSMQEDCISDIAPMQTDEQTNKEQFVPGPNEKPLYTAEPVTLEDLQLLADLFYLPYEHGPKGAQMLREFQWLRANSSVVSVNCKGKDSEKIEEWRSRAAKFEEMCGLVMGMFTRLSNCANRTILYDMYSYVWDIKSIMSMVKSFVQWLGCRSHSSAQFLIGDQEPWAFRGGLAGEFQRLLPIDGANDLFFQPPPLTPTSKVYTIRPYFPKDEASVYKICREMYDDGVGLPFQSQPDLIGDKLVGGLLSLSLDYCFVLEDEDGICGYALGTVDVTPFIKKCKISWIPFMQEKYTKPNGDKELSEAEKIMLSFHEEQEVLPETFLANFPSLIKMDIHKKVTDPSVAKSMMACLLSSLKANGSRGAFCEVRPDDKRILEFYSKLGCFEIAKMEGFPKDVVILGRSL
Summary of the method: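 Full-length recombinant OGA at 2 nM with 100 uM FM-GlcNAc in 200 mM citrate/phosphate buffer, 0.005% Tween-20. IC50 and Hill coefficient from curve fit between no-inhibitor and saturating standard-inhibitor controls.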

hOGA = molecular target: T2, hOGA (Homo sapiens, UniProt O60502); experiment: OGA cellular assay (ICC detection of O-GlcNAcylated proteins in HEK293 cells inducible for P301L mutant human Tau); type: cell-based; set-up: Emax: dose or concentration left out as unconfirmed; conditions: for EC50: Cellular hOGA; for Emax: HEK293, read-out: Cellular Emax (%)
T2 construct: endogenous in cells; host or cells: HEK293 cells inducible for P301L mutant human Tau (isoform 2N4R)
T2 sequence (O60502 1-916): T1 sequence (O60502 1-916)
Summary of the method: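 HEK293 cells inducible for P301L Tau (2N4R), seeded in low-glucose medium, treated with compound for 6 h at 0.2% DMSO. After PFA fixation, O-GlcNAcylated proteins stained with CTD110.6 and imaged (488 nm intensity, 9 fields/well); Hoechst nuclei count for toxicity. IC50 by non-linear regression, Thiamet-G 200 μM as maximum.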

[2] = pIC50, Table 5, full length OGA 2 nM, FM-GlcNAc 100 uM, 6 h at room temperature
[3] = pEC50, Table 5, HEK293 P301L Tau cells, 6 hours incubation, O-GlcNAcylation readout
[4] = Table 5, full length OGA 2 nM, FM-GlcNAc 100 uM, 6 h at room temperature
[5] = Table 5, HEK293 P301L Tau cells, 6 hours incubation, O-GlcNAcylation readout
[6] = second table, averaged values over several runs, obtained after recalibration of the equipment
[7] = pIC50, second table, averaged values over several runs, obtained after recalibration of the equipment
[8] = pEC50, second table, averaged values over several runs, obtained after recalibration of the equipment

SMILES | IC50 [1, 2] [nM] | Emax [1] [%] | EC50 (hOGA; [3]) [nM] | Emax (hOGA) [%] | melting point [°C] | Enzymatic hOGA; pIC50 [1, 4] | Cellular hOGA; pEC50 (hOGA; [5]) | Cellular hOGA; pEC50 (hOGA; [6]) | Enzymatic hOGA; pIC50 [1, 6] | IC50 [1, 7] [nM] | EC50 (hOGA; [8]) [nM]
CCN(C)C(=O)Cn1cnc2c(Nc3c(C)cc(C(F)(F)F)cc3C)nccc21 [Compound 63, 2-[4-[2,6-Dimethyl-4-(trifluoromethyl)anilino]imidazo[4,5-c]pyridin-1-yl]-N-ethyl-N-methyl-acetamide] | 9.33 | 98 | 89.1 | 100 | 186.5 |  |  |  |  |  | 
Cc1cc(C(F)(F)F)cc(C)c1Nc1nccc2c1cnn2CC(=O)N(C)C [Compound 64, 2-[4-[2,6-Dimethyl-4-(trifluoromethyl)anilino]pyrazolo[4,3-c]pyridin-1-yl]-N,N-dimethyl-acetamide] | 42.7 | 101 | 234 | 78 | 196.5 |  |  |  |  |  | 
Cc1ccnc(C(C)C)c1Nc1nccc2c1cnn2CC(=O)N(C)C [Compound 65, 2-[4-[(2-Isopropyl-4-methyl-3-pyridyl)amino]pyrazolo[4,3-c]pyridin-1-yl]-N,N-dimethyl-acetamide] | 174 | 97 | > 1000 | 24 | 211.5 |  |  |  |  |  | 
CCCCn1ncc2c(Nc3c(Cl)cccc3Cl)nccc21 [Compound 66, 1-Butyl-N-(2,6-dichlorophenyl)pyrazolo[4,3-c]pyridin-4-amine] | 85.1 | 104 | > 1000 | 45 | 144.7 |  |  |  |  |  | 
Cc1cc(C(F)(F)F)cc(C)c1Nc1nccc2c1ncn2-c1ncc(F)cn1 [Compound 69] |  | 80 |  | 6 | 198.2 | 6.14 | <6 | 6.14 |  |  | 
Cc1cc(C(F)(F)F)cc(C)c1Nc1nccc2c1ncn2CCC(=O)N(C)C [Compound 70] |  | 7 |  | 7 | 194.9 | <5 | <6 | <6 |  |  | 
Cc1cc(C(F)(F)F)cc(C)c1Nc1nccc2c1ncn2C(C)(C)C(=O)N(C)C [Compound 71] |  | 6 |  | 27 | 260.1 | <5 | <6 | <6 |  |  | 
Cc1cc(C(F)(F)F)cc(C)c1Nc1nccc2c1ncn2C(C)C(=O)N(C)C (stereo not shown) [Compound 72] |  | 92 |  | 2 | 199.9 | 6.26 | <6 | <6 |  |  | 
Cc1cc(C(F)(F)F)cc(C)c1Nc1nccc2c1ncn2C1CCCCO1 (stereo not shown) [Compound 73] |  | 100 |  | 42 | 169.8 | 6.77 | <6 | 6.42 | 6.91 |  | 
COCCn1cnc2c(Nc3c(C)cc(C(F)(F)F)cc3C)nccc21 [Compound 74] |  | 83 |  | 6 | 161.5 | 5.64 | <6 | <6 |  |  | 
Cc1cc(C(F)(F)F)cc(C)c1Nc1ncc(C2CC2)c2c1ncn2CC(=O)N(C)C [Compound 75] |  | 97 |  | 22 | 246.7 | 6.28 | <6 |  |  |  | 
Cc1cc(C(F)(F)F)cc(C)c1Nc1nccc2c1ncn2CC(=O)N(C)CC(F)(F)F [Compound 77] |  | 103 |  | 67 | 228.3 | 7.23 | 6.37 |  |  |  | 
Cc1cc(F)c(F)c(C)c1Nc1nccc2c1ncn2CC(=O)N(C)C [Compound 78] |  |  |  |  | 198.1 |  |  |  |  | 21.4 | 427
Cc1cc(F)c(F)c(C)c1Nc1nccc2c1ncn2CC(=O)N1CCC1 [Compound 79] |  |  |  |  | 214.8 |  |  |  |  | 251 | > 1000
Cc1cc(Cn2cnc3c(Nc4c(C)cc(C(F)(F)F)cc4C)nccc32)no1 [Compound 80] | 8.91 | 104 |  | 94 | 164.7 |  |  |  |  |  | 
Cc1cc(C(F)(F)F)cc(C)c1Nc1ncc(C)c2c1cnn2CC(=O)N(C)C [Compound 81, 2-(4-((2,6-Dimethyl-4-(trifluoromethyl)phenyl)amino)-7-methyl-1H-pyrazolo[4,3-c]pyridin-1-yl)-N,N-dimethylacetamide] | 69.2 | 100 | 537 | 66 | 211.6 |  |  |  |  |  | 151
Cc1cc(C(F)(F)F)cc(C)c1Nc1nccc2c1ncn2-c1cn(C)cn1 [Compound 82, N-(2,6-dimethyl-4-(trifluoromethyl)phenyl)-1-(1-methyl-1H-imidazol-4-yl)-1H-imidazo[4,5-c]pyridin-4-amine] | 174 | 97 |  |  | 184.8 |  |  |  |  | 170 | > 1000
